{"source": "ChEMBL document CHEMBL5046279", "about": "“Discovery of a Partial Glucokinase Activator Clinical Candidate: Diethyl ((3-(3-((5-(Azetidine-1-carbonyl)pyrazin-2-yl)oxy)-5-isopropoxybenzamido)-1H-pyrazol-1-yl)methyl)phosphonate (BMS-820132)” (J Med Chem, 2022)", "key": {"Mus musculus [1]": {"test_system": "Mus musculus", "test": "Anti-hyperglycemic activity in C57BL/6J DIO mouse assessed as reduction in plasma glucose level at 30 umol/kg measured at 1 hr post dose on day 1 by OGTT", "assay_type": "functional", "design": "scale not given: the % may be the effect or the level left", "conditions": "dose 30 µM/Kg, at 30 µmol/kg; call rule not given here"}, "Mus musculus [2]": {"test_system": "Mus musculus", "test": "Anti-hyperglycemic activity in C57BL/6J DIO mouse assessed as reduction in plasma glucose AUC at 1 umol/kg incubated for 120 mins by OGTT", "assay_type": "functional", "design": "scale not given: the % may be the effect or the level left", "conditions": "dose 1 µM/Kg, 2 h, at 1 µmol/kg"}, "Mus musculus [3]": {"test_system": "Mus musculus", "test": "Anti-hyperglycemic activity in C57BL/6J DIO mouse assessed as reduction in plasma glucose level at 3 umol/kg measured after 14 days", "assay_type": "functional", "design": "scale not given: the % may be the effect or the level left", "conditions": "dose 3 µM/Kg; time 14 day; at 3 µmol/kg"}, "Salmonella typhimurium [4]": {"test_system": "Salmonella typhimurium", "test": "Mutagenicity in Salmonella typhimurium TA1537 at 5000 ug/plate in presence of S9 fraction by Ames test", "assay_type": "toxicity, organism-based", "conditions": "salmonella enterica subsp. enterica serovar typhimurium, dose 5000 µg"}, "[5]": {"test": "Half life in cynomolgus monkey at 3 mg/kg, iv measured upto 24 hrs", "assay_type": "ADME, organism-based, Macaca fascicularis", "conditions": "in vivo"}, "[6]": {"test": "Half life in CD1 mouse at 2.5 mg/kg, iv measured upto 24 hrs by LC-MS/MS analysis", "assay_type": "ADME, organism-based", "conditions": "in vivo"}, "Mus musculus [7]": {"test_system": "Mus musculus", "test": "Anti-hyperglycemic activity in C57BL/6J DIO mouse assessed as reduction in plasma glucose AUC at 10 umol/kg incubated for 120 mins by OGTT", "assay_type": "functional", "design": "scale not given: the % may be the effect or the level left", "conditions": "dose 10 µM/Kg, 2 h, at 10 µmol/kg"}, "Mus musculus [8]": {"test_system": "Mus musculus", "test": "Anti-hyperglycemic activity in C57BL/6J DIO mouse assessed as reduction in plasma glucose AUC at 0.3 umol/kg incubated for 120 mins by OGTT", "assay_type": "functional", "design": "scale not given: the % may be the effect or the level left", "conditions": "dose 0.3 µM/Kg, 2 h, at 0.3 µmol/kg"}, "hERG (KCNH2)": {"target": "hERG (KCNH2) (Homo sapiens, UniProt Q12809)", "sequence (Q12809 whole entry)": "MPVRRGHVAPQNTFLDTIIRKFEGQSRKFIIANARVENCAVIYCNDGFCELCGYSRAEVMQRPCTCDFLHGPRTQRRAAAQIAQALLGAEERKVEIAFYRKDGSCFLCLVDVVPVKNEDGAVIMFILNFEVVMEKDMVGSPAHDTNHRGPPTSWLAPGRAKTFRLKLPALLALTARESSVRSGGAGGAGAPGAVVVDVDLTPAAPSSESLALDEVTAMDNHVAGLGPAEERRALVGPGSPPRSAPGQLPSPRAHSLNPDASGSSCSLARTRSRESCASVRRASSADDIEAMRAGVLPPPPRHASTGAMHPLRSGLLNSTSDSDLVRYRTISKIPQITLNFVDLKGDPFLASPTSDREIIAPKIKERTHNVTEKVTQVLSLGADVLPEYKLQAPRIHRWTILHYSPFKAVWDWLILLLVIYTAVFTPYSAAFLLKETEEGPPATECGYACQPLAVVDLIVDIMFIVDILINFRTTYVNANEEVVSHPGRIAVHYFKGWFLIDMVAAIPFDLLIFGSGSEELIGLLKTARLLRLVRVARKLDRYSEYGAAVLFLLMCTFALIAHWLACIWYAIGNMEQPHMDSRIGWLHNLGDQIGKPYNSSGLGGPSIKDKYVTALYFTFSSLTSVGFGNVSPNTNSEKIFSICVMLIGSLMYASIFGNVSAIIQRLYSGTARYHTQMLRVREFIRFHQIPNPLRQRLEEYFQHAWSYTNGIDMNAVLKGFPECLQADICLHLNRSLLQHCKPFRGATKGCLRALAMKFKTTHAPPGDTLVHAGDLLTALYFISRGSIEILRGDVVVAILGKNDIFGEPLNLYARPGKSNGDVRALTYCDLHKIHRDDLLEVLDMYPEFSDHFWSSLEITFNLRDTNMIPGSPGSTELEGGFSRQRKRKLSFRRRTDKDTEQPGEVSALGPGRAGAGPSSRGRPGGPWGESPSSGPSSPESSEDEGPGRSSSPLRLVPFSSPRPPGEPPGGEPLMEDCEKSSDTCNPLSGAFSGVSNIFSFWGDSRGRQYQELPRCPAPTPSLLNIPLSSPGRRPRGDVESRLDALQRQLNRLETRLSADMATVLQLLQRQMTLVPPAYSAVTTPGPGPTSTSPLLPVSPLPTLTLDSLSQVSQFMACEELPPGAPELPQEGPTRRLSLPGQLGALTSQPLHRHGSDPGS", "test": "Inhibition of hERG channel at 30 uM by patch clamp assay relative to control", "assay_type": "toxicity"}, "Hexokinase-4": {"target": "T1, Hexokinase-4 (Mus musculus, UniProt P52792)", "T1 sequence (P52792 whole entry)": "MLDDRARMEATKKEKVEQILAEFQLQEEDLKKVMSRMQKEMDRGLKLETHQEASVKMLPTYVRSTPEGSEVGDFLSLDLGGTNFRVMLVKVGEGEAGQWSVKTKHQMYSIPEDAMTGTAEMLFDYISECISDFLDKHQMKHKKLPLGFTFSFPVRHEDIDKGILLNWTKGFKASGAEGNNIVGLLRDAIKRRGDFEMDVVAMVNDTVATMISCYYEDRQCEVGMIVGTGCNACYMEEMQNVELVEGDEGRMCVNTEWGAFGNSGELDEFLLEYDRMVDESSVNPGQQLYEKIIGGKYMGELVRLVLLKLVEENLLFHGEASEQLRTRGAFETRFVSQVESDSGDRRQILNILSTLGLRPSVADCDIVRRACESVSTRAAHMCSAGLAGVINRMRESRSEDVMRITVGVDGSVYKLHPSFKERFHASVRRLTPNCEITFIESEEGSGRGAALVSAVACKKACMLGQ", "test": "Activation of recombinant mouse full length liver glucokinase expressed in Escherichia coli incubated for 10 mins in presence of 12 mM glucose by plate reader analysis"}, "[9]": {"target": "T2, Nuclear receptor subfamily 1 group I member 2 (Homo sapiens, UniProt O75469)", "T2 sequence (O75469 whole entry)": "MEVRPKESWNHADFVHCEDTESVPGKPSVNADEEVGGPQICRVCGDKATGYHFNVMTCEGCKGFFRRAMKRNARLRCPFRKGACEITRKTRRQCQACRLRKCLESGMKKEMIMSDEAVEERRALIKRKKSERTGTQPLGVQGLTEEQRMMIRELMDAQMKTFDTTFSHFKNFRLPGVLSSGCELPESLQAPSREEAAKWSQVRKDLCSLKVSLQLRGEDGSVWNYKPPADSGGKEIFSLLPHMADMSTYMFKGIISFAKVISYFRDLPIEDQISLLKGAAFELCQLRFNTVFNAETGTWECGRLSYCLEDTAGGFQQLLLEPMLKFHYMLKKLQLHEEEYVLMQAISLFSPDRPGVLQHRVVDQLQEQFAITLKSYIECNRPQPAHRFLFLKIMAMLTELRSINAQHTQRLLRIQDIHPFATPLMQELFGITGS", "test": "Induction of human PXR upto 50 uM"}, "sodium channel": {"test_system": "sodium channel", "test": "Inhibition of sodium channel (unknown origin) at 4 Hz at 10 uM by patch clamp assay relative to control", "assay_type": "toxicity", "conditions": "human"}, "[10]": {"test": "Protein binding in mouse serum", "assay_type": "ADME, cell-free", "conditions": "pooled result: one value given for 5 cell lines, strains, targets or settings, read-out: PB (converted)"}, "[11]": {"test": "Tmax in Sprague-Dawley rat at 5 mg/kg, po measured upto 24 hrs by LC-MS/MS analysis", "assay_type": "ADME, organism-based", "conditions": "in vivo"}, "[12]": {"test": "Cmax in Sprague-Dawley rat at 5 mg/kg, po measured upto 24 hrs by LC-MS/MS analysis", "assay_type": "ADME, organism-based", "design": "route oral, dose 5 mg/kg, time <=24", "conditions": "in vivo"}, "Salmonella typhimurium [13]": {"test_system": "Salmonella typhimurium", "test": "Mutagenicity in Salmonella typhimurium TA98 at 5000 ug/plate in presence of S9 fraction by Ames test", "assay_type": "toxicity, organism-based", "conditions": "salmonella enterica subsp. enterica serovar typhimurium, dose 5000 µg"}, "[14]": {"test": "Oral bioavailability in Beagle dog at 3 mg/kg measured upto 24 hrs", "assay_type": "ADME, organism-based, Canis lupus familiaris", "conditions": "in vivo"}, "[15]": {"test": "Tmax in CD1 mouse at 5 mg/kg, po measured upto 24 hrs by LC-MS/MS analysis", "assay_type": "ADME, organism-based", "conditions": "in vivo"}, "[16]": {"test": "Microsomal stability in human liver microsomes assessed as parent compound remaining at 0.5 uM measured after 10 mins in presence of NADPH", "assay_type": "ADME, Microsome", "conditions": "read-out: Stability"}, "L-type calcium channel": {"test_system": "L-type calcium channel", "test": "Inhibition of L-type calcium channel (unknown origin) at 10 uM by patch clamp assay relative to control", "assay_type": "toxicity", "conditions": "human"}, "Mus musculus [17]": {"test_system": "Mus musculus", "test": "Anti-hyperglycemic activity in C57BL/6J DIO mouse assessed as reduction in plasma glucose level at 3 umol/kg, po qd measured on day 14 by OGTT", "assay_type": "functional", "design": "scale not given: the % may be the effect or the level left", "conditions": "dose 3 µM/Kg; time 24 hrs; at 3 µmol/kg"}, "[18]": {"test": "AUC (0 to 24 hrs) in Sprague-Dawley rat at 5 mg/kg, po measured upto 24 hrs by LC-MS/MS analysis", "assay_type": "ADME, organism-based", "design": "route oral, dose 5 mg/kg, time <=24", "conditions": "in vivo"}, "Salmonella typhimurium [19]": {"test_system": "Salmonella typhimurium", "test": "Mutagenicity in Salmonella typhimurium TA100 at 5000 ug/plate in absence of S9 fraction by Ames test", "assay_type": "toxicity, organism-based", "conditions": "salmonella enterica subsp. enterica serovar typhimurium; dose 5000 µg"}, "Salmonella typhimurium [20]": {"test_system": "Salmonella typhimurium", "test": "Mutagenicity in Salmonella typhimurium TA1535 at 5000 ug/plate in presence of S9 fraction by Ames test", "assay_type": "toxicity, organism-based", "conditions": "salmonella enterica subsp. enterica serovar typhimurium, dose 5000 µg"}, "[21]": {"test": "AUC (0 to 24 hrs) in Sprague-Dawley rat at 2.5 mg/kg, iv measured upto 24 hrs by LC-MS/MS analysis", "assay_type": "ADME, organism-based", "design": "route intravenous, dose 2.5 mg/kg, time <=24", "conditions": "in vivo"}, "[22]": {"test": "Half life in Beagle dog at 3 mg/kg, iv measured upto 24 hrs", "assay_type": "ADME, organism-based, Canis lupus familiaris", "conditions": "in vivo"}, "[23]": {"test": "Aqueous solubility of the compound at pH 6.5 using amorphous form of sample", "assay_type": "physicochemical", "conditions": "aqueous solution"}, "[24]": {"test": "Systemic plasma clearance in cynomolgus monkey at 3 mg/kg, iv measured upto 24 hrs", "assay_type": "ADME, organism-based, Macaca fascicularis"}, "[25]": {"test": "Systemic plasma clearance in CD1 mouse at 2.5 mg/kg, iv measured upto 24 hrs by LC-MS/MS analysis", "assay_type": "ADME, organism-based"}, "Mus musculus [26]": {"test_system": "Mus musculus", "test": "Anti-hyperglycemic activity in C57BL/6J DIO mouse assessed as reduction in plasma glucose AUC at 30 umol/kg, po measured after 120 mins by OGTT", "assay_type": "functional", "design": "scale not given: the % may be the effect or the level left", "conditions": "dose 30 µM/Kg, 2 h, at 30 µmol/kg"}}}
{"smiles": "CCOP(=O)(Cn1ccc(NC(=O)c2cc(Oc3cnc(C(=O)N4CCC4)cn3)cc(OC(C)C)c2)n1)OCC", "values": [{"measurement": "Activity", "setting": "Mus musculus [1]", "value": -46, "unit": "%"}, {"measurement": "Activity", "setting": "Mus musculus [2]", "value": -28, "unit": "%"}, {"measurement": "Activity", "setting": "Mus musculus [3]", "value": -48, "unit": "%"}, {"measurement": "Activity", "setting": "Salmonella typhimurium [4]", "value": "Non-Toxic"}, {"measurement": "half-life", "setting": "[5]", "value": 1.9, "unit": "h"}, {"measurement": "half-life", "setting": "[6]", "value": 2.1, "unit": "h"}, {"measurement": "Activity", "setting": "Mus musculus [7]", "value": -62, "unit": "%"}, {"measurement": "Activity", "setting": "Mus musculus [8]", "value": -18, "unit": "%"}, {"measurement": "inhibition at 30 µM", "setting": "hERG (KCNH2)", "value": 29, "unit": "%"}, {"measurement": "EC50", "setting": "Hexokinase-4", "value": 32, "unit": "nM"}, {"measurement": "Activity", "setting": "[9]", "value": "Not Active"}, {"measurement": "inhibition at 10 µM", "setting": "sodium channel", "value": 12, "unit": "%"}, {"measurement": "fraction unbound", "setting": "[10]", "value": 0.168}, {"measurement": "Tmax", "setting": "[11]", "value": 0.9, "unit": "h"}, {"measurement": "Cmax", "setting": "[12]", "value": 13, "unit": "µM"}, {"measurement": "Activity", "setting": "Salmonella typhimurium [13]", "value": "Non-Toxic"}, {"measurement": "bioavailability", "setting": "[14]", "value": 66, "unit": "%"}, {"measurement": "Tmax", "setting": "[15]", "value": 0.5, "unit": "h"}, {"measurement": "remaining at 10 min, 0.5 µM", "setting": "[16]", "value": 96, "unit": "%"}, {"measurement": "inhibition at 10 µM", "setting": "L-type calcium channel", "value": 13, "unit": "%"}, {"measurement": "Activity", "setting": "Mus musculus [17]", "value": -16, "unit": "%"}, {"measurement": "AUC(0-t)", "setting": "[18]", "value": 29.5, "unit": "µM·h"}, {"measurement": "Activity", "setting": "Salmonella typhimurium [19]", "value": "Non-Toxic"}, {"measurement": "Activity", "setting": "Salmonella typhimurium [20]", "value": "Non-Toxic"}, {"measurement": "AUC(0-t)", "setting": "[21]", "value": 16.6, "unit": "µM·h"}, {"measurement": "half-life", "setting": "[22]", "value": 1.8, "unit": "h"}, {"measurement": "solubility", "setting": "[23]", "value": 10, "unit": "µg/mL"}, {"measurement": "clearance", "setting": "[24]", "value": 22.7, "unit": "mL/min/kg"}, {"measurement": "clearance", "setting": "[25]", "value": 2.9, "unit": "mL/min/kg"}, {"measurement": "Activity", "setting": "Mus musculus [26]", "value": -59, "unit": "%"}]}
